Experimental findings from US11091511B2, “Panaxdiol-type ginsenoside derivative, preparation method therefor and use thereof” (ARMY MEDICAL UNIVERSITY, priority 2016, dated 2021) are described below.

Marks after values point to notes of the source that are not given here.

Series [1] concerns apoE−/− mice. Description: Blood lipids (LDL-C, HDL-C) in apoE-/- mice on high-fat diet. Type of series: in vivo, mouse. The following applies: apoE-/- mice serum, intragastric 15 weeks, compounds 30 mg/(kg·d), simvastatin 10 mg/(kg·d), x ± s; for HDL-C: n = 5, saline control 3.74 ± 0.62; for LDL-C: n = 5, saline control 7.33 ± 1.03. A digest of the protocol:
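Male apoE−/− mice (ten weeks old) on high-fat diet (0.15% cholesterol, 21% lard) for 25 weeks; from week 10, compounds given intragastrically at 30 mg/(kg·d) for 15 weeks (n=5). Serum TC, LDL-C and HDL-C measured on an automatic biochemical analyzer; one-way ANOVA, p<0.05.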

Series [2] concerns RAW264.7 cell-derived foam cells. Description: Formation of RAW264.7 cell-derived foam cells (ox-LDL, oil red O, absorbance 490 nm). The series is classed as cell-based, mouse. To be noted: 48 hours, model group = 100%, x ± s, n = 3. A digest of the protocol:
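RAW264.7 foam cells, induced with 60 mg/L ox-LDL for 48 h, were treated 48 h with compound at 10 or 30 μmol/L in saline, in triplicate wells. Lipid was stained with oil red O, extracted in isopropanol and read at 490 nm. Values are cell-number-corrected lipid content as % of the model group.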

The test system of a further series is TNF-α. Description: Local TNF-α level in the arteries of apoE-/- mice (Millipore liquid phase chip). The series is classed as in vivo, mouse. The following applies: high-fat diet, intragastric 15 weeks, compounds 30 mg/(kg·d), simvastatin 10 mg/(kg·d), x ± s, n = 5, saline control 25.58 ± 6.44. A digest of the protocol: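 Male apoE−/− mice on a high-fat diet (0.15% cholesterol, 21% lard) for 25 weeks received compound at 30 mg/(kg·d) intragastrically from week 10 for 15 weeks (n=5). Arterial TNF-α was then measured with a magnetic bead cytokine panel. Groups were compared by one-way ANOVA.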

In series [3] the test system is apoE−/− mice. Description: Atherosclerotic plaque area to total aortic area in apoE-/- mice on high-fat diet (Sudan IV staining). Type of series: in vivo, mouse. To be noted: intragastric 15 weeks, compounds 30 mg/(kg·d), simvastatin 10 mg/(kg·d), x ± s, n = 5, saline control 14.67 ± 3.58. In a few lines:
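Male apoE−/− mice, 10 weeks old, ate a high-fat diet (0.15% cholesterol, 21% lard) for 25 weeks and received compounds intragastrically at 30 mg/(kg·d) for 15 weeks from week 10 (n=5). Aortas from root to abdominal bifurcation were formalin-fixed and Sudan IV-stained. Lesion area was expressed as percent of total aortic area.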

Another series relates to RAW264.7 cells. Description: RAW264.7 cell survival rate by CCK8 method. To be noted: compound 10 prnol/L, 0.1% DMSO, CCK8, x ± s, n = 3, normal saline control = 1. Type of series: cell-based, mouse. A digest of the protocol:
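Mouse macrophage RAW264.7 cells exposed to compounds at 10 […] in medium containing 0.1% DMSO final, alongside a 0.1% DMSO saline control. Survival measured by CCK8, given as x±s, with groups compared by one-way ANOVA (p<0.05).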

Regarding `COC(=O)[C@H](Cc1c[nH]cn1)NCCC[C@](C)(OC(C)=O)C1CC[C@]2(C)[C@@H]1C(OC(C)=O)CC1[C@@]3(C)CC[C@H](OC(C)=O)C(C)(C)C3CC[C@]12C` (stereo partly shown) [Compound 29], in the series with apoE−/− mice [1], the HDL-C was 4.10 ± 0.78 ^a mmol/L and the LDL-C turned out to be 6.27 ± 1.59 mmol/L. In series [2] (dose 10 μmol/L), the “Foam cell formation (%)” value is recorded as 85 ± 10%. In series [2] (dose 30 μmol/L), the “Foam cell formation (%)” value is listed as 72 ± 18 ^a %. Besides, the “TNF-α level (ng/g)” value with TNF-α was 14.93 ± 3.67 ^a ng/g. The “Plaque area/total aorta area (%)” value in the series with apoE−/− mice [3] was 9.67 ± 2.51 ^a %. Further, the “Cell Survival Rate” value in the series with RAW264.7 cells was found to be 1.00 ± 0.16.
With `COC(=O)[C@@H](NCCC[C@](C)(O[C@H]1O[C@H](COC(C)=O)[C@@H](OC(C)=O)[C@H](OC(C)=O)[C@H]1OC(C)=O)C1CC[C@]2(C)[C@@H]1C(OC(C)=O)CC1[C@@]3(C)CC[C@H](OC(C)=O)C(C)(C)C3CC[C@]12C)C(C)C` (stereo partly shown) [Compound 5], the HDL-C with apoE−/− mice [1] is 5.21 ± 0.73 ^a mmol/L. In addition, the LDL-C in the series with apoE−/− mice [1] is 5.58 ± 1.89 ^a mmol/L. For the same molecule, the “Foam cell formation (%)” value in series [2] (dose 10 μmol/L) was 77 ± 18 ^a %; in series [2] (dose 30 μmol/L) it was 62 ± 13 ^a %. Besides, the “TNF-α level (ng/g)” value in the series on TNF-α is recorded as 17.73 ± 4.87 ^a ng/g. In the series on apoE−/− mice [3], the “Plaque area/total aorta area (%)” value is 10.29 ± 2.67 ^a %. The “Cell Survival Rate” value with RAW264.7 cells was 0.87 ± 0.08.
Regarding `COC(=O)[C@@H](Cc1ccc(O)cc1)NCCC[C@](C)(O[C@H]1O[C@H](COC(C)=O)[C@@H](OC(C)=O)[C@H](OC(C)=O)[C@H]1OC(C)=O)C1CC[C@]2(C)[C@@H]1C(OC(C)=O)CC1[C@@]3(C)CC[C@H](OC(C)=O)C(C)(C)C3CC[C@]12C` (stereo partly shown) [Compound 13], in the series with apoE−/− mice [1], the HDL-C is on record as 5.29 ± 1.18 ^a mmol/L and the LDL-C is on record as 5.07 ± 0.99 ^a mmol/L. Moreover, the “Foam cell formation (%)” value in series [2] (dose 10 μmol/L) is reported as 71 ± 14 ^a %. Also, the “Foam cell formation (%)” value in series [2] (dose 30 μmol/L) is given as 47 ± 23 ^a %. In addition, in the series on TNF-α, the “TNF-α level (ng/g)” value is given as 15.65 ± 6.74 ^a ng/g. Also, the “Plaque area/total aorta area (%)” value in the series on apoE−/− mice [3] is recorded as 9.44 ± 3.24 ^a %. For the same molecule, the “Cell Survival Rate” value in the series on RAW264.7 cells stood at 0.85 ± 0.12.
On to `CCOC(=O)C(NCCC[C@](C)(O[C@H]1O[C@H](COC(C)=O)[C@@H](OC(C)=O)[C@H](OC(C)=O)[C@H]1OC(C)=O)C1CC[C@]2(C)[C@@H]1C(OC(C)=O)CC1[C@@]3(C)CC[C@H](OC(C)=O)C(C)(C)C3CC[C@]12C)C(=O)OCC` (stereo partly shown) [Compound 11], for which, in the series on apoE−/− mice [1], the HDL-C is on record as 4.93 ± 0.58 ^a mmol/L and the LDL-C worked out at 6.59 ± 1.56 mmol/L. Also, in series [2] (dose 10 μmol/L), the “Foam cell formation (%)” value is reported as 72 ± 14 ^a %. Moreover, the “Foam cell formation (%)” value in series [2] (dose 30 μmol/L) is 65 ± 15 ^a %. For the same molecule, the “TNF-α level (ng/g)” value in the series on TNF-α was 12.33 ± 5.81 ^a ng/g. The “Plaque area/total aorta area (%)” value in the series on apoE−/− mice [3] is on record as 9.68 ± 3.52 ^a %. The “Cell Survival Rate” value in the series on RAW264.7 cells was 0.84 ± 0.12.
Turning to `CCOC(=O)CCNCCC[C@](C)(O[C@H]1O[C@H](COC(C)=O)[C@@H](OC(C)=O)[C@H](OC(C)=O)[C@H]1OC(C)=O)C1CC[C@]2(C)[C@@H]1C(OC(C)=O)CC1[C@@]3(C)CC[C@H](OC(C)=O)C(C)(C)C3CC[C@]12C` (stereo partly shown) [Compound 10], in the series with apoE−/− mice [1], the HDL-C was 4.50 ± 0.94 ^a mmol/L and the LDL-C is recorded as 6.54 ± 1.06 mmol/L. In addition, the “Foam cell formation (%)” value in series [2] (dose 10 μmol/L) was 69 ± 18 ^a %. The “Foam cell formation (%)” value in series [2] (dose 30 μmol/L) was 45 ± 21 ^a %. For the same molecule, in the series on TNF-α, the “TNF-α level (ng/g)” value is recorded as 11.66 ± 2.65 ^a ng/g. Also, the “Plaque area/total aorta area (%)” value in the series with apoE−/− mice [3] was 8.52 ± 3.25 ^a %. Moreover, the “Cell Survival Rate” value in the series on RAW264.7 cells is 0.82 ± 0.13.
As to `COC(=O)[C@@H](NCCC[C@](C)(OC(C)=O)C1CC[C@]2(C)[C@@H]1C(OC(C)=O)CC1[C@@]3(C)CC[C@H](OC(C)=O)C(C)(C)C3CC[C@]12C)C(C)C` (stereo partly shown) [Compound 20], in the series on apoE−/− mice [1], the HDL-C was 4.72 ± 0.52 ^a mmol/L and the LDL-C is reported as 6.62 ± 0.89 mmol/L. Moreover, the “Foam cell formation (%)” value in series [2] (dose 10 μmol/L) is listed as 79 ± 15 ^a %. The “Foam cell formation (%)” value in series [2] (dose 30 μmol/L) is reported as 63 ± 14 ^a %. Besides, the “TNF-α level (ng/g)” value in the series with TNF-α is given as 15.98 ± 5.33 ^a ng/g. The “Plaque area/total aorta area (%)” value in the series on apoE−/− mice [3] is recorded as 9.67 ± 2.98 ^a %. The “Cell Survival Rate” value in the series on RAW264.7 cells worked out at 1.02 ± 0.13.
With `CC(=O)OC1CC2[C@@]3(C)CC[C@H](OC(C)=O)C(C)(C)C3CC[C@@]2(C)[C@]2(C)CCC([C@](C)(CCC=O)OC(C)=O)[C@@H]12` (stereo partly shown) [Compound 18], in the series on apoE−/− mice [1], the HDL-C is recorded as 4.72 ± 0.91 ^a mmol/L and the LDL-C is given as 6.15 ± 1.28 mmol/L. In series [2] (dose 10 μmol/L), the “Foam cell formation (%)” value is on record as 84 ± 16%. Further, the “Foam cell formation (%)” value in series [2] (dose 30 μmol/L) was 76 ± 14 ^a %. In the series on TNF-α, the “TNF-α level (ng/g)” value is on record as 16.65 ± 4.57 ^a ng/g. For the same molecule, the “Plaque area/total aorta area (%)” value with apoE−/− mice [3] is given as 9.15 ± 2.85 ^a %. The “Cell Survival Rate” value in the series with RAW264.7 cells came to 0.85 ± 0.08.
In the case of `CC(=O)OC[C@H]1O[C@H](O[C@@](C)(CCC=C(C)C)C2CC[C@]3(C)[C@@H]2C(OC(C)=O)CC2[C@@]4(C)CC[C@H](OC(C)=O)C(C)(C)C4CC[C@]23C)[C@H](OC(C)=O)[C@@H](OC(C)=O)[C@@H]1OC(C)=O` (stereo partly shown) [Compound 1], in the series with apoE−/− mice [1], the HDL-C is 4.55 ± 0.86 ^a mmol/L and the LDL-C worked out at 6.39 ± 1.09 mmol/L. For the same molecule, the “Foam cell formation (%)” value in series [2] (dose 10 μmol/L) stood at 83 ± 12%. The “Foam cell formation (%)” value in series [2] (dose 30 μmol/L) is on record as 65 ± 18 ^a %. In addition, the “TNF-α level (ng/g)” value with TNF-α is 19.41 ± 3.81 ^a ng/g. The “Plaque area/total aorta area (%)” value in the series with apoE−/− mice [3] is recorded as 10.65 ± 2.62 ^a %. Also, the “Cell Survival Rate” value with RAW264.7 cells is 0.65 ± 0.07 ^a.
With `COC(=O)[C@H](Cc1ccccc1)NCCC[C@](C)(O[C@H]1O[C@H](COC(C)=O)[C@@H](OC(C)=O)[C@H](OC(C)=O)[C@H]1OC(C)=O)C1CC[C@]2(C)[C@@H]1C(OC(C)=O)CC1[C@@]3(C)CC[C@H](OC(C)=O)C(C)(C)C3CC[C@]12C` (stereo partly shown) [Compound 12], in the series on apoE−/− mice [1], the HDL-C is 4.44 ± 0.83 ^a mmol/L and the LDL-C is listed as 5.27 ± 1.74 ^a mmol/L. Also, the “Foam cell formation (%)” value in series [2] (dose 10 μmol/L) is listed as 84 ± 15%. Also, in series [2] (dose 30 μmol/L), the “Foam cell formation (%)” value is recorded as 68 ± 21 ^a %. The “TNF-α level (ng/g)” value in the series on TNF-α is given as 18.27 ± 5.24 ^a ng/g. For the same molecule, the “Plaque area/total aorta area (%)” value in the series on apoE−/− mice [3] was 10.23 ± 3.54 ^a %. Also, in the series with RAW264.7 cells, the “Cell Survival Rate” value was determined as 0.87 ± 0.16.
Regarding `CCOC(=O)C(NCCCCC[C@](C)(OC(C)=O)C1CC[C@]2(C)[C@@H]1C(OC(C)=O)CC1[C@@]3(C)CC[C@H](OC(C)=O)C(C)(C)C3CC[C@]12C)C(C)OCC` (stereo partly shown) [Compound 26], in the series with apoE−/− mice [1], the HDL-C is reported as 4.45 ± 0.62 ^a mmol/L and the LDL-C is on record as 6.28 ± 0.84 mmol/L. In series [2] (dose 10 μmol/L), the “Foam cell formation (%)” value was 83 ± 21%. Further, in series [2] (dose 30 μmol/L), the “Foam cell formation (%)” value is on record as 72 ± 18 ^a %. Moreover, the “TNF-α level (ng/g)” value with TNF-α was 16.02 ± 3.11 ^a ng/g. Further, the “Plaque area/total aorta area (%)” value with apoE−/− mice [3] is reported as 9.78 ± 3.17 ^a %. For the same molecule, the “Cell Survival Rate” value with RAW264.7 cells is on record as 0.94 ± 0.05.
